Consider 25 compounds from patent US20250235543A1, “MODIFIED PROTEINS AND PROTEIN DEGRADERS” (Cullgen (Shanghai), Inc., priority 2021, published 2025).

One test has as its target T1, DDB1 (Homo sapiens, UniProt Q16531, D705G/DEL396-460/DEL463-701/I704S/T703N).
T1 construct: His6 (N, cleaved yes); TEV protease cleavage site (N, cleaved yes); made in house; host or cells: SF9 insect cells, Bac-to-Bac baculovirus, pFastBacHTB vector
In words: SPR binding assay to immobilized DDB1ΔBPB. The conditions noted are these: binding affinities to DDB1. The protocol: The binding affinities of heterobifunctional compounds to DDB1 were determined by SPR assay (FIG. 1A-1B). Purified DDB1ΔBPB proteins were immobilized on a CM5 sensor chip, and a dose range of compound solutions were injected in multi-cycle kinetic format. Data were fit to a steady state model to provide equivalent dissociation constants (Kd).
Human DDB1ΔBPB (UniProt: Q16531. BPB domain, aa 396 to 705, is replaced with a GNGNSG linker) coding sequences were cloned into pFastBacHTB vector and were expressed in SF9 cells using Bac-to-Bac baculovirus expression system (Thermo Fisher Scientific). The expression constructs include an N-terminal His6-tag to facilitate the purification, and a TEV protease cleavage site in between. DDB1ΔBPB proteins were obtained from supernatant of cell lysates and purified through sequential application of Ni affinity column (Ni-NTA column, Bio-Rad) and size-exclusion column (Superdex 200 16/600GL column, GE Healthcare) chromatography. Protein tags were cleaved off by TEV protease, and the resulting untagged proteins were further purified by Ni affinity column. Purified proteins were verified by immunoblotting, analytic SEC, and LC-MS.
SPR studies were performed on a Biacore X100 plus instrument (GE Healthcare). Immobilization of purified DDB1ΔBPB was carried out at 25° C. using a CM5 sensor chip. The surface was pre-equilibrated in HBS-EP running buffer (10 mM HEPES, pH7.4, 150 mM NaCl, 3 mM EDTA, 0.05% P20), before it was activated with EDC/NHS. DDB1ΔBPB proteins were immobilized by amine coupling to a density of 10,000-12,000 resonance units (RUs) on flow cell FC2, whereas flow cell FC1 was used as reference. Both protein immobilized and reference surfaces were deactivated with 1M ethanolamine. All interaction experiments were performed at 25° C. Test compounds were prepared and serially diluted in HBS-EP running buffer containing final 5% DMSO (6-point two-fold serial dilution, 100 μM-3.125 μM final concentration of compounds). Compound solutions were injected individually in multi-cycle kinetic format without regeneration (flow rate 30 μl/min, association time 120 s, dissociation time 120 s). Sensorgrams from reference surfaces and blank injections were subtracted from the raw data (double-referencing) and the data was solvent-corrected prior to analysis. All data were fit to steady state affinity model using Biacore Evaluation Software to provide equivalent dissociation constants (Kd).

A further test deals with T2, CDK4 (Homo sapiens, UniProt P11802).
T2 construct: endogenous in cells; host or cells: Calu-1
In words: CDK4 percentage degradation in Calu-1 cells (immunoblotting). It counts as cell-based. The conditions noted are these: for inhibition at 10 µM: read-out: CDK4 Degradation (10 μM). In outline: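 CDK4 degradation was measured by immunoblotting. Cells were washed in cold PBS and lysed in RIPA buffer with inhibitors for 30 min at 4° C., then spun at 13,000 rpm to clear. After BCA protein determination, lysates were heated at 99° C. for 5 min in Laemmli buffer, resolved on SDS-PAGE, imaged on a ChemiDoc MP with ECL substrate, and band intensities quantified.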

The subject of a further test is cyclin D1. In words: Cyclin D1 percentage degradation in Calu-1 cells (immunoblotting). It counts as cell-based. The conditions noted are these: 16 hours. In outline: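 Cyclin D1 degradation was assessed by western blot. Clarified lysates, obtained by RIPA lysis with inhibitors and centrifugation at 13,000 rpm, were normalized by BCA protein assay and separated by SDS-PAGE. Bands were detected with Western ECL Substrate on a Bio-Rad ChemiDoc MP Imaging system and quantified in Image Lab software to derive percentage degradation.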
Background: In western blotting, separated proteins are transferred to a membrane and probed.

Read-outs that look alike come from different tables or passages of the source.

T1 sequence (Q16531 other isoform, or with tags, fused parts or gaps DEL396-460/DEL463-701/T703N/I704S/D705G): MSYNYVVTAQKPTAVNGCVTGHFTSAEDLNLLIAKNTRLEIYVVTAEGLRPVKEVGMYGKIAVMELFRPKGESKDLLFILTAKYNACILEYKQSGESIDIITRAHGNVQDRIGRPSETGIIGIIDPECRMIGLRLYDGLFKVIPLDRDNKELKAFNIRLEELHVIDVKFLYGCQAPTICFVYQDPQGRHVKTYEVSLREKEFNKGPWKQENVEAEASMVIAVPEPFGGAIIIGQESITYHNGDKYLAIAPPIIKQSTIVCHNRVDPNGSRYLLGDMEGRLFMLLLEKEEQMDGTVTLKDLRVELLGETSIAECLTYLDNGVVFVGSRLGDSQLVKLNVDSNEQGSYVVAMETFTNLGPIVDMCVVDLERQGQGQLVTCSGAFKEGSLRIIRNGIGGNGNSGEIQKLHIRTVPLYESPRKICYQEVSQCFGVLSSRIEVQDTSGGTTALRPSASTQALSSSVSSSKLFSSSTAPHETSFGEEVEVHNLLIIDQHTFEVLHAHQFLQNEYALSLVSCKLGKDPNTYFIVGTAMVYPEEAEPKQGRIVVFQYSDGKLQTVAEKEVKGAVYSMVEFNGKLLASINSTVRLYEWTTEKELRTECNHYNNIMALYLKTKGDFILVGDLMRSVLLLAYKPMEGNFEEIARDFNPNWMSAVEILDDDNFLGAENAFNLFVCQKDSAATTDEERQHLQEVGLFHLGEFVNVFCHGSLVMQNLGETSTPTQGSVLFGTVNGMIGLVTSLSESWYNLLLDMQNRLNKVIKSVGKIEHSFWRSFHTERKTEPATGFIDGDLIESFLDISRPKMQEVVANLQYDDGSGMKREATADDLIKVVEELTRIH
T2 sequence (P11802 2-303 limits assumed): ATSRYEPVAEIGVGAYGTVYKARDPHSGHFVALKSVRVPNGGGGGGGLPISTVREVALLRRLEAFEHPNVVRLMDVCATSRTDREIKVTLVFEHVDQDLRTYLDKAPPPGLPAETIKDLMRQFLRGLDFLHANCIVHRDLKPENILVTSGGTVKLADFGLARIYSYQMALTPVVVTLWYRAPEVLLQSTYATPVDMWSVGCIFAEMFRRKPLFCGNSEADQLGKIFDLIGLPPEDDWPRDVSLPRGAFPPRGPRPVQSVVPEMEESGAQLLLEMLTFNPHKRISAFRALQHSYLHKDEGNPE
T2 sequence (P24385 whole entry partner): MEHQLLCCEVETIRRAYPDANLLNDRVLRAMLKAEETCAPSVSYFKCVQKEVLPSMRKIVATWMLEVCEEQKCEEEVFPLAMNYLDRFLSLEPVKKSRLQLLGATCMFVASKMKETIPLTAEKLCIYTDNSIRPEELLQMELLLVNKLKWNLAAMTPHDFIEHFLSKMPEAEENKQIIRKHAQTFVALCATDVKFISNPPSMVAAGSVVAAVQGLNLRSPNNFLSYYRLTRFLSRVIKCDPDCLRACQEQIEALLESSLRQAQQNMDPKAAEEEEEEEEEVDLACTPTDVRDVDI
T2 sequence (Q16531 2-1140 limits assumed, further chain): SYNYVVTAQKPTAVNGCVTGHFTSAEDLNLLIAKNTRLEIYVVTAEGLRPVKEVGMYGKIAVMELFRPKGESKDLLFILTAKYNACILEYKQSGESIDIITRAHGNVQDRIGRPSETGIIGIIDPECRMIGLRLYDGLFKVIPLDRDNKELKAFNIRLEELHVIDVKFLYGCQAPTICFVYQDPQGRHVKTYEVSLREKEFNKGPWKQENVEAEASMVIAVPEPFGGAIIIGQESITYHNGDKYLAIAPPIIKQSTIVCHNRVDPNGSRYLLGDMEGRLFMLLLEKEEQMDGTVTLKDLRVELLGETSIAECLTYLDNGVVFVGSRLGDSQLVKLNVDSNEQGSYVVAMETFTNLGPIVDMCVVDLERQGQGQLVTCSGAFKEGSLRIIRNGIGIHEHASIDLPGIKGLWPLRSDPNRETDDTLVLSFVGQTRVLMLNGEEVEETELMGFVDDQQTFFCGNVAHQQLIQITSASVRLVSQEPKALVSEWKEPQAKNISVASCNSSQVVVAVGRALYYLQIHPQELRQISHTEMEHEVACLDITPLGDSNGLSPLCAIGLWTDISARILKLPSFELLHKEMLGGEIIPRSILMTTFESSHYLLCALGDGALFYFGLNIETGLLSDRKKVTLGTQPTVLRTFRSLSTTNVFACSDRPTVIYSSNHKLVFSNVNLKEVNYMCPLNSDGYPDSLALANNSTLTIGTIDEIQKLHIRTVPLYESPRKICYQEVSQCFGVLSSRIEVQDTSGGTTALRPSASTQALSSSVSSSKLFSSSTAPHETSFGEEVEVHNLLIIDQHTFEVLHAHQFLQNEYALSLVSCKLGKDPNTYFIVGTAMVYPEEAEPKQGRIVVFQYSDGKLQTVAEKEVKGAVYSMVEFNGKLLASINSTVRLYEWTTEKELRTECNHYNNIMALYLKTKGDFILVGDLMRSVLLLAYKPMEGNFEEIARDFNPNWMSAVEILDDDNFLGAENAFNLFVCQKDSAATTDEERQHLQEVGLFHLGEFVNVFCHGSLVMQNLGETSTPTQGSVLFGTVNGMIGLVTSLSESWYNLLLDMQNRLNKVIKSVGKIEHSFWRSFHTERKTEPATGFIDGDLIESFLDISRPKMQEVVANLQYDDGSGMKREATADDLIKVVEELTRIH

`Cc1ccccc1C(=O)Nc1nc(C)c(C)s1` [B1-1, N-(4,5-dimethylthiazol-2-yl)-2-methylbenzamide]: the Kd – broadly, a measure of binding affinity in units of concentration – at DDB1 was more than 100 µM.

`Cc1ccccc1C(=O)Nc1nc(Br)c(C)s1` [B1-2, N-(4-bromo-5-methylthiazol-2-yl)-2-methylbenzamide]: the equilibrium dissociation constant (Kd) at DDB1 was more than 100 µM.

`Cc1ccccc1C(=O)Nc1nc(C(C)C)c(C)s1` [B1-3, N-(4-isopropyl-5-methylthiazol-2-yl)-2-methylbenzamide] yielded a dissociation constant Kd at DDB1 of 50 to 100 µM.

For the compound `COC(=O)c1nc(NC(=O)c2ccccc2C)sc1C` [B1-4, methyl 5-methyl-2-(2-methylbenzamido)thiazole-4-carboxylate], the Kd on DDB1 is less than 20 µM.

On to `CCc1nc(NC(=O)c2ccccc2C)sc1C` [B1-5, N-(4-ethyl-5-methylthiazol-2-yl)-2-methylbenzamide], for which, on DDB1, the Kd was 20 to 50 µM.

On to `CC(=O)Nc1ccccc1C(=O)Nc1nc(C)c(C)s1` [B1-6, 2-acetamido-N-(4,5-dimethylthiazol-2-yl)benzamide], for which the Kd on DDB1 was 20 to 50 µM.

`Cc1ccccc1C(=O)Nc1nc(C2CC2)c(C)s1` [B1-7, N-(4-cyclopropyl-5-methylthiazol-2-yl)-2-methylbenzamide] displayed a Kd at DDB1 of more than 100 µM.

`Cc1ccccc1C(=O)Nc1cc(C)n(C)n1` [B1-8, N-(1,5-dimethyl-1H-pyrazol-3-yl)-2-methylbenzamide] yielded a Kd on DDB1 of more than 100 µM.

`CC(=O)Nc1ccccc1C(=O)Nc1ccc(C)cn1` [B1-31, 2-acetamido-N-(5-methylpyridin-2-yl)benzamide] registered a Kd on DDB1 of more than 100 µM.

Consider `COc1ccc(NC(=O)c2ccccc2NC(C)=O)nn1` [B1-53, 2-acetamido-N-(6-methoxypyridazin-3-yl)benzamide], for which, at DDB1, the dissociation constant (Kd) lay within 20 to 50 µM.

`CNc1ccc(C(=O)Nc2nc(C)c(C)s2)c(NC(C)=O)c1` [B1-67, 2-acetamido-N-(4,5-dimethylthiazol-2-yl)-4-(methylamino)benzamide] had a Kd at DDB1 of 20 to 50 µM.

For the compound `CC(=O)Nc1ccccc1C(=O)Nc1ccc(N(C)C)nn1` [B1-71, 2-acetamido-N-(6-(dimethylamino)pyridazin-3-yl)benzamide], the Kd on DDB1 is 20 to 50 µM.

`CC(=O)Nc1ccccc1C(=O)Nc1ccc(C)c(C2CC2)n1` [B1-73, 2-acetamido-N-(6-cyclopropyl-5-methylpyridin-2-yl)benzamide] gave a dissociation constant Kd at DDB1 of more than 100 µM.

The compound `CC(=O)NCCCCCCCCC(=O)Nc1ccccc1C(=O)Nc1nc(C)c(C)s1` [B1-79, 2-(9-acetamidononanamido)-N-(4,5-dimethylthiazol-2-yl)benzamide] showed a Kd at DDB1 of 20 to 50 µM.

Consider `CC(=O)NCCOCCOCCNc1cccc(C(=O)Nc2nc(C)c(C)s2)c1C` [B1-80, 3-((2-(2-(2-acetamidoethoxy)ethoxy)ethyl)amino)-N-(4,5-dimethylthiazol-2-yl)-2-methylbenzamide], for which the Kd at DDB1 was less than 20 µM.

Compound `COc1ccc(NC(=O)c2ccccc2NC(C)=O)nc1` [B1-83, 2-acetamido-N-(5-methoxypyridin-2-yl)benzamide] gave a Kd at DDB1 of 20 to 50 µM.

`CNc1ccc(C(=O)Nc2ccc(C)cn2)c(NC(C)=O)c1` [B1-88, 2-acetamido-4-(methylamino)-N-(5-methylpyridin-2-yl)benzamide]: at DDB1, the Kd was less than 20 µM.

In the case of `Cc1cnc(NC(=O)c2ccc(NCCOCCOCCOCCOCCOCCN)cc2C)s1` [BL1-24, 4-((17-amino-3,6,9,12,15-pentaoxaheptadecyl)amino)-2-methyl-N-(5-methylthiazol-2-yl)benzamide], the Kd on DDB1 was less than 20 µM.

In the case of `Cc1cc(NCCOCCOCCOCCOCCOCCN)ccc1C(=O)Nc1nc(C)c(C)s1` [BL1-36, 4-((17-amino-3,6,9,12,15-pentaoxaheptadecyl)amino)-N-(4,5-dimethylthiazol-2-yl)-2-methylbenzamide], at DDB1, the Kd is less than 20 µM.

As to `COC(=O)c1nc(NC(=O)c2ccc(NCCOCCOCCOCCOCCOCCN)cc2C)sc1C` [BL1-38, methyl 2-(4-((17-amino-3,6,9,12,15-pentaoxaheptadecyl)amino)-2-methylbenzamido)-5-methylthiazole-4-carboxylate], the Kd at DDB1 is less than 20 µM.

As to `Cc1cnc(NC(=O)c2ccc(NCCOCCOCCOCCOCCOCCNC(=O)CN3CCN(Cc4ccc(Nc5ncc(F)c(-c6cc(F)c7nc(C)n(C(C)C)c7c6)n5)nc4)CC3)cc2C)s1` [CPD-020, 4-((1-(4-((6-((5-Fluoro-4-(4-fluoro-1-isopropyl-2-methyl-1H-benzo[d]imidazol-6-yl)pyrimidin-2-yl)amino)pyridin-3-yl)methyl)piperazin-1-yl)-2-oxo-6,9,12,15,18-pentaoxa-3-azaicosan-20-yl)amino)-2-methyl-N-(5-methylthiazol-2-yl)benzamide], the inhibition at 10 µM on CDK4 (Calu-1 cells, 10 μM, 16 hours) was less than 30%. At DDB1, this compound yielded a Kd of less than 20 µM. Besides, in the test with cyclin D1, the “CyclinD1 Degradation (10 μM)” value is “D (protein percentage degradation < 30%)”.

For the compound `Cc1cnc(NC(=O)c2ccc(NCCOCCOCCOCCOCCOCCNC(=O)CN3CCN(c4ccc(Nc5ncc(F)c(-c6cc(F)c7nc(C)n(C(C)C)c7c6)n5)nc4)CC3)cc2C)s1` [CPD-021, 4-((1-(4-(6-((5-Fluoro-4-(4-fluoro-1-isopropyl-2-methyl-1H-benzo[d]imidazol-6-yl)pyrimidin-2-yl)amino)pyridin-3-yl)piperazin-1-yl)-2-oxo-6,9,12,15,18-pentaoxa-3-azaicosan-20-yl)amino)-2-methyl-N-(5-methylthiazol-2-yl)benzamide], at CDK4 (Calu-1 cells, 10 μM, 16 hours), the inhibition at 10 µM lay in the range of 50 to 80%. Further, the Kd at DDB1 was 20 to 50 µM. Moreover, the “CyclinD1 Degradation (10 μM)” value in the test on cyclin D1 is on record as “A (protein percentage degradation >= 80%)”.

For the compound `Cc1cnc(NC(=O)c2ccc(NCCOCCOCCOCCOCCOCCNC(=O)CN3CCN(c4ccc(Nc5ncc6cc7n(c6n5)C5(CCCCC5)CNC7=O)nc4)CC3)cc2C)s1` [CPD-022, 2-Methyl-N-(5-methylthiazol-2-yl)-4-((2-oxo-1-(4-(6-((6′-oxo-7′,8′-dihydro-6′H-spiro[cyclohexane-1,9′-pyrazino[1′,2′:1,5]pyrrolo[2,3-d]pyrimidin]-2′-yl)amino)pyridin-3-yl)piperazin-1-yl)-6,9,12,15,18-pentaoxa-3-azaicosan-20-yl)amino)benzamide], the inhibition at 10 µM on CDK4 (Calu-1, 16 h) was more than 80%. This compound had an equilibrium dissociation constant (Kd) on DDB1 of less than 20 µM. The “CyclinD1 Degradation (10 μM)” value with cyclin D1 is given as “A (protein percentage degradation >= 80%)”.

For `Cc1cnc(NC(=O)c2ccc(NCCOCCOCCOCCOCCOCCNC(=O)CN3CCN(c4ccc(Nc5ncc6cc(C(=O)N(C)C)n(C7CCCC7)c6n5)nc4)CC3)cc2C)s1` [CPD-023, 7-Cyclopentyl-N,N-dimethyl-2-((5-(4-(20-((3-methyl-4-((5-methylthiazol-2-yl)carbamoyl)phenyl)amino)-2-oxo-6,9,12,15,18-pentaoxa-3-azaicosyl)piperazin-1-yl)pyridin-2-yl)amino)-7H-pyrrolo[2,3-d]pyrimidine-6-carboxamide], the inhibition at 10 µM on CDK4 (Calu-1 cells, 10 μM, 16 hours) is more than 80%. Moreover, on DDB1, the dissociation constant (Kd) is 50 to 100 µM. The “CyclinD1 Degradation (10 μM)” value in the test with cyclin D1 is given as “A (protein percentage degradation >= 80%)”.

Consider `CC(=O)c1c(C)c2cnc(Nc3ccc(N4CCN(CC(=O)NC(C)CCCCNc5cc(Cl)ccc5C(=O)Nc5ccc(C)c(C6CC6)n5)CC4)cn3)nc2n(C2CCCC2)c1=O` (stereo not shown) [CPD-379, 2-((5-(2-(4-(6-((6-Acetyl-8-cyclopentyl-5-methyl-7-oxo-7,8-dihydropyrido[2,3-d]pyrimidin-2-yl)amino)pyridin-3-yl)piperazin-1-yl)acetamido)hexyl)amino)-4-chloro-N-(6-cyclopropyl-5-methylpyridin-2-yl)benzamide], for which, at CDK4 (Calu-1 cells, 200 nM, 16 hours, read-out: CDK4 Degradation (200 nM)), the inhibition at 0.2 µM was 50 to 80%. The “CyclinD1 Degradation (200 nM)” value in the test with cyclin D1 (200 nM) is given as “A (protein percentage degradation >=80%)”.
